Data published in paper PMC12314052 (Nature Communications, 2025).
Positions count from the first letter of the chain named.

Key:
hM5 mAChR [1] = target: T1, hM5 mAChR (Homo sapiens, UniProt P08912); assay: Inositol monophosphate (IP1) accumulation assay, ML380-ACh interaction; type: cell-based; details: WT M5 mAChR, CHO cells
T1 construct: expressed in transfected cells
T1 sequence (P08912 1-532): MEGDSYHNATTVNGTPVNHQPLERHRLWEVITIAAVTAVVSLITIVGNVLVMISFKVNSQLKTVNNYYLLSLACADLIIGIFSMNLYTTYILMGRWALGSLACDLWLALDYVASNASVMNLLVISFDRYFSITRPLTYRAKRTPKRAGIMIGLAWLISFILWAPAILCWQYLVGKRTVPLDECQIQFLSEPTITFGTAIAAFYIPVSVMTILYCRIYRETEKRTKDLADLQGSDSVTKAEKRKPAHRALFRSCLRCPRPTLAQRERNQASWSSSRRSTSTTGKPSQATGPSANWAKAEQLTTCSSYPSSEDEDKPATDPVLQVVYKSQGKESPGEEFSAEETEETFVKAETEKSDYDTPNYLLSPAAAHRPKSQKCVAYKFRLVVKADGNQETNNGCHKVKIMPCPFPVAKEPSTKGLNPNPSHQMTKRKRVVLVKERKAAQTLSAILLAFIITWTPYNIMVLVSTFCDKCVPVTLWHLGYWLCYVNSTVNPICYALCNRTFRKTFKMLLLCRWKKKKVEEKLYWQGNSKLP
Protocol: (§1) FlpIn CHO cells stably expressing either WT or mutant hM5 mAChR were seeded in clear, flat bottom 96-well plates at a density of 10,000−25,000 cells per well (depending on the cell line) one day prior to the assay. The optimal cell density for each line was chosen based on achieving an IP1 response that fell within the linear range of the IP1 standard curve. On the assay day, the medium was replaced with stimulation buffer (Hanks’ balanced salt solution (HBSS) containing 10 mM HEPES, 1.3 mM CaCl2, and 30 mM LiCl, pH 7.4) and allowed to incubate for 60 minutes at 37 °C before ligand stimulation. After this pre-incubation, the buffer was replaced, and cells were exposed to ligands for 60 minutes at 37 °C in a 5% CO2 atmosphere, with a total assay volume of 100 μL. Following the 60-minute stimulation, ligands were removed by rapid removal of buffer. Cells were lysed by freeze-thawing in 30 μL of stimulation buffer. IP1 accumulation was then quantified using the HTRF IP-One assay kit (Cisbio), with fluorescence measured on an EnVision multilabel plate reader (PerkinElmer).
(§2) All data were analysed using GraphPad Prism 10 (GraphPad Software, San Diego, CA). The interaction between orthosteric agonist and allosteric modulator in functional assays was analysed using an operational model of allosterism to determine functional modulation (log αβ) and affinity (pKB) parameters. Radioligand saturation binding experiments with [^3H]-NMS to determine Bmax and pKD values were determined using a one site – specific binding equation in Prism 10^31. For the radioligand binding interaction of orthosteric agonist with various concentrations of allosteric modulator, the data were fit to an allosteric ternary complex model to derive pKB and α binding cooperativity parameters. All affinity, potency, cooperativity, and efficacy parameters were estimated as logarithms. To ensure model convergence in all instances, allosteric parameters were determined from the respective allosteric models, which were globally fitted to all individual datasets for each allosteric modulator at each receptor construct. […]

hM5 mAChR [2] = target: T2, hM5 mAChR (Homo sapiens, UniProt P08912, A113V/G152A/L156V); assay: as above; type: cell-based; details: M5 EH4 pocket mutant (A113V, G152A, L156V), CHO cells
T2 construct: expressed in transfected cells
T2 sequence (P08912 1-532 A113V/G152A/L156V): T1 sequence (P08912 1-532) with A113V, G152A, L156V
Protocol: as §1, §2

hM5 mAChR [3] = assay: as above; type: cell-based, human; details: ECV allosteric site alanine mutants of M5 mAChR, CHO cells
Protocol: as §1, §2

hM5 mAChR [4] = assay: [3H]-NMS equilibrium radioligand binding, interaction of ACh and allosteric modulator; design: species or system human
Protocol: FlpIn CHO cells stably expressing WT hM5 mAChR or mutants were plated at 25,000 cells per well in 96-well isoplates (PerkinElmer Life Sciences) and incubated overnight at 37 °C in a 5% CO2 incubator. The following day, the cells were washed with PBS and incubated in 20 mM HEPES, 100 mM NaCl, 10 mM MgCl2, pH 7.4. For saturation binding experiments, the cells were incubated with varying concentrations of the orthosteric antagonist [^3H]-N-methylscopolamine ([^3H]-NMS; specific activity, 70 Ci/mmol, Perkin Elmer) in a final volume of 100 μL for 6 hours at room temperature. […] Radioactivity was measured by adding 100 μL of Optiphase Supermix scintillation fluid (PerkinElmer) and counted using a MicroBeta^2 Plate Counter (PerkinElmer Life Sciences).
All data were analysed using GraphPad Prism 10 (GraphPad Software, San Diego, CA). The interaction between orthosteric agonist and allosteric modulator in functional assays was analysed using an operational model of allosterism to determine functional modulation (log αβ) and affinity (pKB) parameters. Radioligand saturation binding experiments with [^3H]-NMS to determine Bmax and pKD values were determined using a one site – specific binding equation in Prism 10^31. […]

ACh-bound M5 mAChR = target: T3, ACh-bound M5 mAChR (Homo sapiens, UniProt P08912); assay: Binding affinity for the ACh-bound receptor (chemical probe statement); details: determined in this study and others
T3 sequence (P08912 1-532): T1 sequence (P08912 1-532)

[5] = cited from earlier work
[6] = test system: Gαq-coupled mAChRs (M1, M3, M5); details: M1, M3, M5 mAChRs ref 27; cited from earlier work

## CCN(Cc1ccccc1C(F)(F)F)C(=O)C1CCN(S(=O)(=O)c2ccc3[nH]ncc3c2)CC1 [ML380, 1-((1H-indazol-5-yl)sulfoneyl)-N-ethyl-N-(2-(trifluoromethyl)benzyl)piperidine-4-carboxamide]
hM5 mAChR [1]
  Activity of ML380 and cooperativity with ACh: both agonism and positive cooperativity with ACh
hM5 mAChR [2]
  Change in ML380 affinity (pKB) compared to WT: no significant change in affinity
hM5 mAChR [3]
  ML380 function at ECV alanine mutants: retained its ability to bind, activate, and modulate receptor function
hM5 mAChR [4]; M5/M2 TM1,7,h8 chimera
  ML380 cooperativity with ACh versus WT: increased
hM5 mAChR [4]; M5/M2 TM2,3,4 and M5/M2 TM3,4,5 chimeras (swapping TM2-5)
  ML380's ability to modulate ACh binding: completely abolished
ACh-bound M5 mAChR
  Kd: ~575 nM
[5]
  CNS penetration: penetrate the CNS
[5]; limited in vivo utility ref 25
  Partition coefficients: poor

## O=C1C(=O)N(Cc2ccc(Br)cc2)c2ccccc21 [VU0119498]
[6]
  Effect on ACh signalling: enhanced
